Experimental data taken from BindingDB's records for doi:10.1016/s0960-894x(01)00278-5 (Pharmacia, 2001).

Experiment: Binding affinity towards guinea pig Opioid receptor kappa 1 using radioligand [3H]U69,593
In the case of `CNC(=O)c1ccc2c3c1OC1C(O)C=C[C@H]4[C@@H](C2)N(C)CC[C@]314` (stereo partly drawn) [4,10N-dimethyl-14-hydroxy-(1S,5R,17R)-12-oxa-4-azapentacyclo[9.6.1.01,13.05,17.07,18]octadeca-7,9,11(18),15-tetraene-10-carboxamide], the Ki is reported as > 10 µM. `CN1CC[C@]23c4c5ccc(C(N)=O)c4OC2C(O)C=C[C@H]3[C@H]1C5` (stereo partly drawn) [14-hydroxy-4-methyl-(1S,5R,17R)-12-oxa-4-azapentacyclo[9.6.1.01,13.05,17.07,18]octadeca-7,9,11(18),15-tetraene-10-carboxamide] gave a Ki of 1.9 µM. With `CN(C)C(=O)c1ccc2c3c1OC1C(O)C=C[C@H]4[C@@H](C2)N(C)CC[C@]314` (stereo partly drawn) [4,10N,10N-trimethyl-14-hydroxy-(1S,5R,17R)-12-oxa-4-azapentacyclo[9.6.1.01,13.05,17.07,18]octadeca-7,9,11(18),15-tetraene-10-carboxamide] the Ki was > 10 µM.
